The target of this test is T1, GPR73 (prokineticin 1 receptor) (Homo sapiens, UniProt Q8TCW9).
T1 construct: expressed in transfected cells; host or cells: HEK 293
The experiment in a line: PK1 functional assay: Ca2+ mobilization screening for PK1 antagonists on the FLIPR. The format is cell-based. The conditions noted are these: HEK 293 GPR73 cells, multiple values = multiple testing; for inhibition at 10 µM: HEK293, 10 μM compound, read-out: Ca^2+ Mobilization % Inh @ 10 μM; for IC50: PK1 ligand preparation at its EC50, read-out: Ca^2+ Mobilization IC50; for Ca^2+ Mobilization % Inh @ 10 μM: 10 μM compound. On the procedure:
At a time of 24 h prior to running the assay, in cell culture media (DMEM containing high Glucose and L-glutamine, 10% FBS, 1% Pen/Streptomycin, 1% Sodium Pyruvate, 20 mM HEPES, Zeocin 200 mg/L), 100 μL of 1.3*10^6/ml HEK 293 GPR73 (prokineticin 1 receptor) expressing cells were plated in a 96 well poly-d-lysine coated plate (Costar), and incubated at 37 C and 5% CO2. On the day in which the assay was run, the media was removed and 200 μL of 5× Calcium Plus Dye (Molecular Devices) which was previously resuspended with 200 mL of assay buffer [HBSS w/Ca^2+ and Mg^2+ w/o phenol red, 20 mM HEPES, 0.1% BSA, 10 mL probenecid (710 mg probenecid in 5 mL of 1N NaOH, to which was then added 5 mL HBSS containing 20 mM HEPES)] was added to each well of the 96-well plate. The plate was incubated at 37 C and 5% CO2 for 30 min in dark. The plate was removed and allowed to reach RT for 15 min in the dark. The assay was then run on the FLIPR. In Brief: base line read for 1 min, compound added (25 μL) and incubated for 4 min, 15 seconds, PK1 ligand preparation added (25 μL) for a final concentration of a previously determined EC50 and fluorescence was counted for 1 min, 45 seconds. Baseline is described as the amount of relative fluorescence read when buffer alone is added to cells. Baseline was subtracted from all wells. Percent of control was calculated as follows:
(Baseline subtracted well value is divided by baseline subtracted max value)*100. Percent inhibition is 100 minus the percent of control value.
The IC50 is defined as the amount of a given compound required to inhibit 50% of the maximum signal that is generated by the concentration of PK1 preparation used in our assay. IC50 values were calculated using GraphPad Prism.

Several values for one entry are separate records, joined by “and”; a condition that tells them apart may be missing. Equal values may be shown once.

In general, IC50 refers to the concentration at which inhibition is half-maximal.

T1 sequence (Q8TCW9 whole entry, species assumed): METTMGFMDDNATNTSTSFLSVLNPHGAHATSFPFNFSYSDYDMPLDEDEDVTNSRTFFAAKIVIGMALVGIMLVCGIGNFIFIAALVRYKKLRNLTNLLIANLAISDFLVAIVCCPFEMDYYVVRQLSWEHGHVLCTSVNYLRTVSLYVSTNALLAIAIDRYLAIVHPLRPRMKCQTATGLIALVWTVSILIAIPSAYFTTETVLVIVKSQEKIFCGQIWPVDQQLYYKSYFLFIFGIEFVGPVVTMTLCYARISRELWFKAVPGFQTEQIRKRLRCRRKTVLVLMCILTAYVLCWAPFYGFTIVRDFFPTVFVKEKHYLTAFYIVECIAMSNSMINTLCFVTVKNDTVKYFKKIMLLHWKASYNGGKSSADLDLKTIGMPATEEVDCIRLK

Take `COCCNc1ncccc1CNc1nc(=O)n(CC2COc3ccccc3O2)c(=O)n1Cc1ccc(OC)cc1` (stereo not shown) [Cpd 73]: the inhibition at 10 µM amounted to 58% and the IC50 is 5930 nM.
Take `COc1ccc(Cn2c(=O)nc(NCc3cccnc3N)n(Cc3cccc(C#N)c3)c2=O)cc1` [Cpd 81]: the inhibition at 10 µM was determined as 36% and the IC50 is greater than 10000 nM.
The matching figures for `Nc1ncccc1CNc1nc(=O)n(Cc2ccc3[nH]ccc3c2)c(=O)n1Cc1ccc(OC(F)F)cc1` [Cpd 228]: 63% and 3400 nM.
`COc1ccc(Cn2c(=O)nc(NCc3cnc(C)cc3C)n(Cc3ccccc3OC(F)(F)F)c2=O)cc1` [Cpd 105]: the inhibition at 10 µM was determined as 85% and the half-inhibitory concentration (IC50) was 437 nM.
For `COc1ccc(Cn2c(NCc3ccc[n+]([O-])c3N)nc(=O)n(Cc3ccc(OC)cc3)c2=O)cc1` [Cpd 32] the same measures were 78% and 1220 nM.
Turning to `COc1ccc(Cn2c(=O)nc(NCc3cnc(C)cc3C)n(Cc3cc4ccccc4o3)c2=O)cc1` [Cpd 102], the inhibition at 10 µM was determined as 99% and the half-maximal inhibitory concentration (IC50) came out at 110 nM.
For `COc1ccc(Cn2c(NCc3cnc(C)cc3C)nc(=O)n(Cc3ccc4c(c3)nnn4C)c2=O)cc1` [Cpd 216] the same measures were 80% and 1060 nM.
In the case of `Cc1cc(C)c(CNc2nc(=O)n(Cc3ccc4c(c3)nnn4C)c(=O)n2Cc2ccc(OC(F)F)cc2)cn1` [Cpd 192], the “Ca^2+ Mobilization % Inh @ 10 μM” value was found to be 82%; the inhibition at 10 µM turned out to be 80%; the IC50 was 146 nM and 1060 nM.
As for `COc1ccc(CCn2c(NCc3cccnc3N)nc(=O)n(Cc3ccc(OC)cc3)c2=O)cc1` [Cpd 94], the inhibition at 10 µM was found to be 91% and the IC50 amounted to 373 nM.
As for `COc1ccc(Cn2c(=O)nc(NCc3cccnc3N)n(Cc3ccccc3C#N)c2=O)cc1` [Cpd 88], the inhibition at 10 µM was 41% and the IC50 was greater than 10000 nM.
Take `COc1ccc(Cn2c(NCc3cccnc3N)nc(=O)n(Cc3cccc(OC)c3)c2=O)cc1` [Cpd 42]: the inhibition at 10 µM came to 49% and the 50% inhibitory concentration (IC50) was greater than 10000 nM.
For the compound `CCCNc1cccc(CNc2nc(=O)n(Cc3ccc(OC)cc3)c(=O)n2Cc2ccc(OC)cc2)n1` [Cpd 147, 1,3-Bis-(4-methoxy-benzyl)-6-[(6-propylamino-pyridin-2-ylmethyl)-amino]-1H-[1,3,5]triazine-2,4-dione], the inhibition at 10 µM stood at 99% and the IC50 amounted to 110 nM.
Turning to `Cc1cc(C)c(CNc2nc(=O)n(CCOc3ccc(F)cc3)c(=O)n2Cc2ccc(OC(F)F)cc2)cn1` [Cpd 167], the inhibition at 10 µM stood at 65% and the IC50 came to 2620 nM.
Take `COc1ccc(Cn2c(NCc3cccnc3NCC3CCCO3)nc(=O)n(Cc3ccc(OC)cc3)c2=O)cc1` (stereo not shown) [Cpd 68]: the inhibition at 10 µM amounted to 95% and the IC50 is 217 nM.
For `Cc1cc(C)c(CNc2nc(=O)n(Cc3ccc(C(F)(F)F)cc3)c(=O)n2Cc2ccc(OC(F)F)cc2)cn1` [Cpd 162] the same measures were 31% and greater than 10000 nM.
Regarding `COc1ccc(Cn2c(=O)nc(NCc3cccnc3N)n(Cc3ccc(OC)nc3)c2=O)cc1` [Cpd 95], the inhibition at 10 µM is 92% and the IC50 stood at 84 nM.
With `COc1ccc(Cn2c(CCc3cnccc3N)cc(=O)n(Cc3ccc(OC)cc3)c2=O)cc1` [Cpd 214], the inhibition at 10 µM is 53% and the 50% inhibitory concentration (IC50) worked out at 7160 nM.
Consider `COCCNc1ncccc1CNc1nc(=O)n(CCc2ccc([N+](=O)[O-])cc2)c(=O)n1Cc1ccc(OC)cc1` [Cpd 74], for which the inhibition at 10 µM is 54% and the half-inhibitory concentration (IC50) turned out to be 7460 nM.
For `COc1ccc(Cn2c(=O)nc(NCc3cccnc3N)n(Cc3ccc(OC(F)(F)F)cc3)c2=O)cc1` [Cpd 38] the same measures were 91% and 391 nM.
As to `COc1ccc(Cn2c(=O)nc(NCc3cccnc3N)n(Cc3ccccc3OC)c2=O)cc1` [Cpd 92], the inhibition at 10 µM worked out at 58% and the half-maximal inhibitory concentration (IC50) came out at 5160 nM.
Regarding `Cc1cc(C)c(CNc2nc(=O)n(Cc3ccc4snnc4c3)c(=O)n2Cc2ccc3c(c2)CCO3)cn1` [Cpd 243], the inhibition at 10 µM worked out at 75% and the concentration for half-maximal inhibition (IC50) was found to be 914 nM.
For `COc1ccc(Cn2c(NCc3c(N)nc(C)c(C)c3C)nc(=O)n(Cc3ccc(OC)cc3)c2=O)cc1` [Cpd 263] the same measures were 99% and 94 nM.
Take `Cc1cc(C)c(CNc2nc(=O)n(Cc3ccc4occc4c3)c(=O)n2Cc2ccc3c(c2)CCO3)c(N)n1` [Cpd 186]: the “Ca^2+ Mobilization % Inh @ 10 μM” value is given as 100%; the inhibition at 10 µM came out at 99%; the IC50 is 74 nM and 97 nM.
For `COCCCCCn1c(NCc2c(C)cc(C)nc2N)nc(=O)n(Cc2ccc(OC)cc2)c1=O` [Cpd 224, 6-[(2-Amino-4,6-dimethyl-pyridin-3-ylmethyl)-amino]-3-(4-methoxy-benzyl)-1-(5-methoxy-pentyl)-1H-[1,3,5]triazine-2,4-dione], the inhibition at 10 µM came out at 97%; the IC50 is 7 nM and 11 nM.
Take `COc1ccc(Cn2c(=O)nc(NCc3cccnc3N)n(Cc3ccncc3)c2=O)cc1` [Cpd 76]: the inhibition at 10 µM came to 67% and the IC50 came to 1460 nM.
Regarding `COc1ccc(Cn2c(=O)nc(NCc3cccnc3N)n(Cc3ccc4occc4c3)c2=O)cc1` [Cpd 126], the inhibition at 10 µM was 89% and the 50% inhibitory concentration (IC50) was found to be 232 nM.
For `Cc1cc(C)c(CNc2nc(=O)n(Cc3ccc(F)cc3)c(=O)n2Cc2ccc(OC(F)F)cc2)cn1` [Cpd 160, 1-(4-Difluoromethoxy-benzyl)-6-[(4,6-dimethyl-pyridin-3-ylmethyl)-amino]-3-(4-fluoro-benzyl)-1H-[1,3,5]triazine-2,4-dione], the inhibition at 10 µM was 71% and the IC50 was determined as 628 nM.
In the case of `COCCNc1ncccc1CNc1nc(=O)n(Cc2ccc(F)cc2)c(=O)n1Cc1ccc(OC)cc1` [Cpd 28, 3-(4-Fluoro-benzyl)-1-(4-methoxy-benzyl)-6-{[2-(2-methoxy-ethylamino)-pyridin-3-ylmethyl]-amino}-1H-[1,3,5]triazine-2,4-dione], the “Ca^2+ Mobilization % Inh @ 10 μM” value is 90% and 91%; the inhibition at 10 µM is 85%.
For the compound `COc1ccc(Cn2c(NCc3cnc(C)cc3C)nc(=O)n(Cc3ccc(OC)cc3)c2=O)cc1` [Cpd 22, 6-[(4,6-Dimethyl-pyridin-3-ylmethyl)-amino]-1,3-bis-(4-methoxy-benzyl)-1H-[1,3,5]triazine-2,4-dione], the “Ca^2+ Mobilization % Inh @ 10 μM” value was 96% and 97%; the inhibition at 10 µM turned out to be 88%.
On to `COc1ccc(Cn2c(NCc3cccc(C)n3)nc(=O)n(Cc3ccc(OC)cc3)c2=O)cc1` [Cpd 267], for which the inhibition at 10 µM was 10% and the IC50 is greater than 10000 nM.
`Cc1cc(C)c(CNc2nc(=O)n(Cc3ccc4c(c3)OCO4)c(=O)n2Cc2ccc(OC(F)F)cc2)c(N)n1` [Cpd 219]: the “Ca^2+ Mobilization % Inh @ 10 μM” value is recorded as 97%; the inhibition at 10 µM is 94%; the half-inhibitory concentration (IC50) was 136 nM and 158 nM.
Regarding `COc1ccc(Cn2c(=O)nc(NCc3cnc(C)cc3C)n(Cc3ccc4sccc4c3)c2=O)cc1` [Cpd 142], the inhibition at 10 µM is 76% and the half-inhibitory concentration (IC50) turned out to be 387 nM.
With `Cc1cc(C)c(CNc2nc(=O)n(Cc3ccc4occc4c3)c(=O)n2Cc2ccc(OC(F)F)cc2)c(N)n1` [Cpd 175], the “Ca^2+ Mobilization % Inh @ 10 μM” value is reported as 99%; the inhibition at 10 µM was determined as 96%; the concentration for half-maximal inhibition (IC50) is 57 nM and 93 nM.

The values above are taken from patent US20080287445A1, “Prokineticin 2 receptor antagonists” (priority 2005, published 2008).
